Article PMC4014704, “β-Boomerang Antimicrobial and Antiendotoxic Peptides: Lipidation and Disulfide Bond Effects on Activity and Structure” (Pharmaceuticals, 2014)
pKd: −log10 of the molar value. ≈ marks a conversion by molar mass, not a printed value. Peptide text beside a SMILES is read from it.

What was measured:
LPS micelles [1] = assay: Isothermal titration calorimetry; assay type: binding, E. coli 0111:B4; details: ITC; for Ka: 1 mM peptide into 10 μM LPS, 10 mM phosphate buffer pH 7.0, 25 °C, single site binding model; for pKd: LPS micelles, pH 7.0, 25 °C, Kd = 1/Ka
Protocol: Isothermal titration calorimetry: Binding of designed peptides with LPS micelles was determined using isothermal titration calorimetry in VP-ITC micro calorimeter (Microcal Inc, Northampton, MA, USA). Peptides and LPS samples were dissolved in 10 mM phosphate buffer, pH 7.0 and filtered. LPS at a concentration of 10 μM was loaded into the sample cell and the reference cell was filled with the same buffer. The syringe was filled with 1mM peptide solution. Typically 30 injections of 3.5 μL of the peptides were made into the sample cell at 25 °C. Sample cell was stirred continuously at 300 rpm. Raw data were obtained and analyzed using single site binding model in Microcal Origin 5.0 software. Association constant (Ka) and enthalpy change (ΔH) were directly determined from ITC profiles. Dissociation constant was calculated from Kd = 1/Ka. ΔG and TΔS were estimated from the fundamental equations of thermodynamics, ΔG = −RTlnKa and TΔS = (ΔH − ΔG), respectively.

LPS (endotoxin) = assay: LPS neutralization assay (chromogenic LAL kit); assay type: biochemical; details: for LPS neutralization: 1.0 μM peptide
Protocol: LPS neutralization assay: LAL chromogenic kit (QCL 100 Cambrex, Walkersville, MD, USA) was used to determine endotoxin neutralization of the designed peptides following protocol of the vendor. LPS in Gram negative bacteria activates a proenzyme in limulus amoebocyte lysate (LAL). This activated enzyme in turn catalytically release a colored product pNA from the colorless substrate Ac-Ile-Glu-Ala-Arg-pNA which is detected spectrophotometrically at OD410. All peptides were dissolved in the pyrogen-free water supplied with the kit and pH was adjusted to 7.0 with 1N HCl or 1N NaOH (which is prepared in pyrogen-free water). The increasing concentrations of the peptides were incubated with three different concentrations of endotoxins, i.e., at 0.4, 0.8 and 1.0 endotoxin units (EU) in a total volume of 50 μL for 30 minutes at 37 °C. About 50 μL of LAL reagent was added to peptide-LPS complex and further incubated for 10 minutes followed by addition of 100 μL substrate. After incubation of six minutes for the reaction, the release of colored product was recorded at OD410. Water in the place of peptides served as negative control (blank) that is considered as 0% inhibition and percentage of LPS neutralization was calculated by: % of LPS neutralization = [(OD blank − OD peptide)/OD blank] × 100

red blood cells = details: mouse RBC ~4% (v/v) in PBS pH 7.0, 1 h, OD540, 1% Triton-X = positive control
Protocol: Hemolytic assay: Blood was collected from healthy mice in a tube containing EDTA. Cells with EDTA were centrifuged at 800 g for 10 min, to remove the buffy plasma coat layer, and washed three times in PBS (35 mM phosphate buffer, 150 mM NaCl, pH 7.0). 50 μL of RBC solution was added to equal volume of two-fold dilution of the peptides in 96-well micro titer plates and incubated for one hour. The final erythrocyte concentration estimated to be ~4% (v/v). After one hour, the mixture was centrifuged and the release of hemoglobin in the supernatant was determined spectrophotometrically at OD540. Buffer and 1% Triton-X in the place of peptides used as negative control and positive control, respectively. The percentage of hemolysis was calculated using the following method: Percentage of hemolysis = (OD peptide − OD buffer)/(OD Triton-X-OD buffer) × 100

S.pyogenes (ATCC 19615) = assay: Antibacterial assay (MIC); assay type: cell-based; details: 10 mM phosphate buffer pH 6.8, 3 h 37 °C, streaked on Mueller-Hinton agar
Protocol: (§1) Antibacterial assay: The minimum inhibitory concentration (MIC) of the designed peptides was determined against four Gram-negative strains (E. coli, P. aeruginosa ATCC 27853, K. pneumoniae ATCC 13883, S. enterica ATCC 14028) and four Gram-positive strains (B. subtilis, S. aureus ATCC 25923, S. pyogenes ATCC 19615 and E. faecalis ATCC 29212). In brief, mid logarithmic phase of overnight grown bacterial cultures were obtained in LB broth and adjusted to OD600 0.2 in 10 mM phosphate buffer, pH 6.8. About 50 μL of these cells were added to equal volume of designed peptides at two-fold dilutions in 96-well sterile polypropylene plates followed by incubation for 3hrs at 37 °C. Aliquots of the above titrated wells were streaked onto Mueller-Hinton agar plates and the concentration at which no visible bacterial growth was observed considered as the MIC value of the peptide.

S.aureus (ATCC 25923) = assay: Antibacterial assay (MIC); assay type: cell-based; details: 10 mM phosphate buffer pH 6.8, 3 h 37 °C, streaked on Mueller-Hinton agar
Protocol: as §1

S.enterica (ATCC 14028) = assay: Antibacterial assay (MIC); assay type: cell-based; details: 10 mM phosphate buffer pH 6.8, 3 h 37 °C, streaked on Mueller-Hinton agar
Protocol: as §1

E.coli (Lab strain) = assay: Antibacterial assay (MIC); assay type: cell-based; details: 10 mM phosphate buffer pH 6.8, 3 h 37 °C, streaked on Mueller-Hinton agar, no visible growth
Protocol: as §1

[2] = test system: P.aeruginosa (ATCC 27853); assay: Antibacterial assay (MIC); assay type: cell-based; details: 10 mM phosphate buffer pH 6.8, 3 h 37 °C, streaked on Mueller-Hinton agar
Protocol: as §1

[3] = test system: K. pneumoniae (ATCC 13883); assay: Antibacterial assay (MIC); assay type: cell-based; details: 10 mM phosphate buffer pH 6.8, 3 h 37 °C, streaked on Mueller-Hinton agar
Protocol: as §1

E.faecalis (ATCC 29212) = assay: Antibacterial assay (MIC); assay type: cell-based; details: 10 mM phosphate buffer pH 6.8, 3 h 37 °C, streaked on Mueller-Hinton agar
Protocol: as §1

B.subtilis (Lab strain) = assay: Antibacterial assay (MIC); assay type: cell-based; details: 10 mM phosphate buffer pH 6.8, 3 h 37 °C, streaked on Mueller-Hinton agar
Protocol: as §1

LPS micelles [4] = assay: Dynamic light scattering of LPS micelles; design: species or system E. coli 0111:B4; details: DLS, 0.5 μM LPS, LPS:peptide 1:4; LPS alone 814 nm
Protocol: Dynamic light scattering measurements: LPS forms micelles of large sizes, which with the addition of increasing concentration of peptides, dissociates to smaller sizes. DLS measurements were made for 0.5 μM LPS and then with LPS: Peptide ratios of 1:2 and 1:4. The scattering was measured with Dynamic Light Scattering software provided with the instrument (Brookhaven Instruments Corp., Holtsville, NY, USA) and the scattering data was analyzed with CONTIN method.

E. coli cells = assay: Zeta potential measurements; assay type: cell-based; details: 4 μM peptide; cells without peptide about −20.0 mV; OD600 0.2
Protocol: Zeta potential measurements: The zeta potential measurements were carried out on a Zetasizer Nano ZS (Malvern Instruments, Worcestershire, UK) equipped with a 633 nm He lasers. Mid-log phase grown bacterial cells were diluted to an OD600 of 0.2 and a basal measurement in the absence of peptides was acquired in disposable zeta cells with gold electrodes. Increasing concentrations of the designed peptides were then added to the cells and the measurements were made. A total of five measurements of 100 runs each were carried out for all dilutions.

[5] = Reverse phase HPLC retention time (hydrophobicity); assay type: physicochemical; design: unit not given beside the values; details: C18 column (300 Å pore size, 5 μm particle size), linear gradient acetonitrile/water, higher Rt taken as more hydrophobic
From the text: Materials: LPS of E. coli 0111:B4, FITC-LPS of E. coli 055:B5, acrylamide, NPN (1-N-phenylnaphthylamine) were purchased from Sigma (Saint Louis, MO, USA). All bacterial strains were obtained from the American Type Culture Collection (Manassas, VA, USA). Designed peptides were synthesized commercially by GL Biochem (Shanghai, China) and further purified by a reverse phase HPLC (Waters), using a C18 column (300 Å pore size, 5 μm particle size). The dimeric variants of β-boomerang lipopeptides were treated with 20% DMSO for 18 hours and the oxidized peptides were further purified by HPLC. A linear gradient of acetonitrile/water mixture was used for the purification and fractions eluting with higher purity were collected and freeze-dried.
In addition, incorporation of disulfide bridges in AMPs may stabilize conformations and enhance cationicity and hydrophobicity required for enhanced activity. […] Residue Ile10 was chosen for Cys replacement since this residue is located at the exposed face of the β-strand of the YI12WF structure (Figure 1).

## CCCC(=O)N[C@@H](Cc1ccc(O)cc1)C(=O)N[C@H](C(=O)N[C@@H](CC(C)C)C(=O)N[C@@H](Cc1c[nH]c2ccccc12)C(=O)N[C@@H](CCCCN)C(=O)N[C@@H](CCCNC(=N)N)C(=O)N[C@@H](CCCCN)C(=O)N[C@@H](CCCNC(=N)N)C(=O)N[C@@H](CCCCN)C(=O)N[C@@H](Cc1ccccc1)C(=O)N[C@@H](CSSC[C@H](NC(=O)[C@H](Cc1ccccc1)NC(=O)[C@H](CCCCN)NC(=O)[C@H](CCCNC(=N)N)NC(=O)[C@H](CCCCN)NC(=O)[C@H](CCCNC(=N)N)NC(=O)[C@H](CCCCN)NC(=O)[C@H](Cc1c[nH]c2ccccc12)NC(=O)[C@H](CC(C)C)NC(=O)[C@@H](NC(=O)[C@H](Cc1ccc(O)cc1)NC(=O)CCC)C(C)C)C(=O)N[C@@H](Cc1ccccc1)C(=O)N[C@H](C(N)=O)[C@@H](C)CC)C(=O)N[C@@H](Cc1ccccc1)C(=O)N[C@H](C(N)=O)[C@@H](C)CC)C(C)C [C4YI13C] (HELM PEPTIDE1{[CCCC(=O)[*:2]].Y.V.L.W.K.R.K.R.K.F.C.F.I.[am]}|PEPTIDE2{[CCCC(=O)[*:2]].Y.V.L.W.K.R.K.R.K.F.C.F.I.[am]}$PEPTIDE1,PEPTIDE2,12:R3-12:R3$$$V2.0)
LPS micelles [1]
  Ka: 2.2 µM⁻¹
  pKd: 6.35
LPS (endotoxin); 0.4 EU endotoxin, 30 min 37 °C, OD410
  LPS neutralization: ~ 40%
LPS (endotoxin); 1.0 EU endotoxin
  LPS neutralization: 50%
Red blood cells
  % of hemolysis at 50 μM peptide concentration: 14.1%
S.pyogenes (ATCC 19615)
  Minimum inhibitory concentration (MIC): 50 µM (≈ 186 µg/mL)
S.aureus (ATCC 25923)
  Minimum inhibitory concentration (MIC): 50 µM (≈ 186 µg/mL)
S.enterica (ATCC 14028)
  Minimum inhibitory concentration (MIC): 50 µM (≈ 186 µg/mL)
E.coli (Lab strain)
  Minimum inhibitory concentration (MIC): 10 µM (≈ 37.1 µg/mL)
[2]
  Minimum inhibitory concentration (MIC): 15 µM (≈ 55.7 µg/mL)
[3]
  Minimum inhibitory concentration (MIC): 8 µM (≈ 29.7 µg/mL)
E.faecalis (ATCC 29212)
  Minimum inhibitory concentration (MIC): 50 µM (≈ 186 µg/mL)
B.subtilis (Lab strain)
  Minimum inhibitory concentration (MIC): 15 µM (≈ 55.7 µg/mL)
LPS micelles [4]
  Diameter of LPS aggregates: 331 nm
E. coli cells
  Zeta potential of E. coli cells after peptide addition: about +19.1 mV
[5]
  Retention time (Rt): 31.62

## CC[C@H](C)[C@H](NC(=O)[C@H](Cc1ccccc1)NC(=O)[C@H](CSSC[C@H](NC(=O)[C@H](Cc1ccccc1)NC(=O)[C@H](CCCCN)NC(=O)[C@H](CCCNC(=N)N)NC(=O)[C@H](CCCCN)NC(=O)[C@H](CCCNC(=N)N)NC(=O)[C@H](CCCCN)NC(=O)[C@H](Cc1c[nH]c2ccccc12)NC(=O)[C@H](CC(C)C)NC(=O)[C@@H](NC(=O)[C@@H](N)Cc1ccc(O)cc1)C(C)C)C(=O)N[C@@H](Cc1ccccc1)C(=O)N[C@H](C(N)=O)[C@@H](C)CC)NC(=O)[C@H](Cc1ccccc1)NC(=O)[C@H](CCCCN)NC(=O)[C@H](CCCNC(=N)N)NC(=O)[C@H](CCCCN)NC(=O)[C@H](CCCNC(=N)N)NC(=O)[C@H](CCCCN)NC(=O)[C@H](Cc1c[nH]c2ccccc12)NC(=O)[C@H](CC(C)C)NC(=O)[C@@H](NC(=O)[C@@H](N)Cc1ccc(O)cc1)C(C)C)C(N)=O [YI13C] (HELM PEPTIDE1{Y.V.L.W.K.R.K.R.K.F.C.F.I.[am]}|PEPTIDE2{Y.V.L.W.K.R.K.R.K.F.C.F.I.[am]}$PEPTIDE1,PEPTIDE2,11:R3-11:R3$$$V2.0)
LPS micelles [1]
  Ka: 4.2 µM⁻¹
  pKd: 6.64
LPS (endotoxin); 10 μM peptide concentration
  LPS neutralization (in words): neutralization activity equal to acylated analogs
Red blood cells
  % of hemolysis at 50 μM peptide concentration: 21.5%
S.pyogenes (ATCC 19615)
  Minimum inhibitory concentration (MIC): 50 µM (≈ 179 µg/mL)
S.aureus (ATCC 25923)
  Minimum inhibitory concentration (MIC): 20 µM (≈ 71.4 µg/mL)
S.enterica (ATCC 14028)
  Minimum inhibitory concentration (MIC): 50 µM (≈ 179 µg/mL)
E.coli (Lab strain)
  Minimum inhibitory concentration (MIC): 12.5 µM (≈ 44.6 µg/mL)
[2]
  Minimum inhibitory concentration (MIC): 20 µM (≈ 71.4 µg/mL)
[3]
  Minimum inhibitory concentration (MIC): 25 µM (≈ 89.3 µg/mL)
E.faecalis (ATCC 29212)
  Minimum inhibitory concentration (MIC): 50 µM (≈ 179 µg/mL)
B.subtilis (Lab strain)
  Minimum inhibitory concentration (MIC): 20 µM (≈ 71.4 µg/mL)
LPS micelles [4]
  Diameter of LPS aggregates: 291 nm
[5]
  Retention time (Rt): 27.48
